Measured values from the supplement of paper PMC10307832.

Legend:
Experiment in all cases: relative viability (nuclei count vs DMSO), 5 days (fraction); higher = more cells survive
NCI-H1975 = system: NCI-H1975
Summary of the method: (§1)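 Lung cancer cell lines, seeded in 1536-well plates, were treated the following day by pin tool with a single drug or with five library-drug doses (not always all listed) in √10 steps on top of a fixed anchor-drug dose. Cells were fixed and nuclei stained in one step after 5 days, and nuclei were counted. Relative viability is the nuclei count for treated wells divided by that for vehicle wells, reported as medians of duplicate plates.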

HOP-62 = system: HOP-62
Summary of the method: as §1

NCI-H1755 = system: NCI-H1755
Summary of the method: as §1

NCI-H1915 = system: NCI-H1915
Summary of the method: as §1

NCI-H2347 = system: NCI-H2347
Summary of the method: as §1

NCI-H2228 = system: NCI-H2228
Summary of the method: as §1

NCI-H522 = system: NCI-H522
Summary of the method: as §1

LOU-NH91 = system: LOU-NH91
Summary of the method: as §1

RERF-LC-KJ = system: RERF-LC-KJ
Summary of the method: as §1

NCI-H460 = system: NCI-H460
Summary of the method: as §1

LC-2-ad = system: LC-2-ad
Summary of the method: as §1

A-427 = system: A-427
Summary of the method: as §1

PC-3 [JPC-3] = system: PC-3 [JPC-3]
Summary of the method: as §1

NCI-H2126 = system: NCI-H2126
Summary of the method: as §1

LXF-289 = system: LXF-289
Summary of the method: as §1

SW 1573 = system: SW 1573
Summary of the method: as §1

HCC-15 = system: HCC-15
Summary of the method: as §1

NCI-H2342 = system: NCI-H2342
Summary of the method: as §1

NCI-H1734 = system: NCI-H1734
Summary of the method: as §1

SK-LU-1 = system: SK-LU-1
Summary of the method: as §1

NCI-H358 = system: NCI-H358
Summary of the method: as §1

HCC-78 = system: HCC-78
Summary of the method: as §1

NCI-H647 = system: NCI-H647
Summary of the method: as §1

With C[C@@H]1CN(CC(=O)Nc2ccc3c(c2)Cc2cccc(-c4cc(=O)cc(N5CCOCC5)o4)c2S3)C[C@H](C)O1 + Cc1cc(Nc2cc(N3CCN(C)CC3)nc(Sc3ccc(NC(=O)C4CC4)cc3)n2)n[nH]1 [Tozasertib] (partner 0.1 µM) the relative viability (NCI-H1975; first compound 0.04 µM) was 0.781, the relative viability (NCI-H1975; first compound 0.1265 µM) was 0.675 and the relative viability (NCI-H1975; first compound 0.4 µM) was 0.611. It also gave a relative viability (NCI-H1975; first compound 4 µM) of 0.193, a relative viability (HOP-62; first compound 0.04 µM) of 0.378 and a relative viability (HOP-62; first compound 0.1265 µM) of 0.365. The relative viability (HOP-62; first compound 0.4 µM) was 0.35, the relative viability (HOP-62; first compound 4 µM) was 0.346 and the relative viability (NCI-H1755; first compound 0.04 µM) was 0.603. For the same compound, the relative viability (NCI-H1755; first compound 0.1265 µM) was 0.582, the relative viability (NCI-H1755; first compound 0.4 µM) was 0.595 and the relative viability (NCI-H1755; first compound 4 µM) was 0.466. It also gave a relative viability (NCI-H1915; first compound 0.04 µM) of 0.364, a relative viability (NCI-H1915; first compound 0.1265 µM) of 0.422 and a relative viability (NCI-H1915; first compound 0.4 µM) of 0.399. The relative viability (NCI-H1915; first compound 4 µM) was 0.314, the relative viability (NCI-H2347; first compound 0.04 µM) was 0.598 and the relative viability (NCI-H2347; first compound 0.1265 µM) was 0.646. For the same compound, the relative viability (NCI-H2347; first compound 0.4 µM) was 0.535, the relative viability (NCI-H2347; first compound 4 µM) was 0.448 and the relative viability (NCI-H2228; first compound 0.04 µM) was 0.235. It also gave a relative viability (NCI-H2228; first compound 0.1265 µM) of 0.214, a relative viability (NCI-H2228; first compound 0.4 µM) of 0.245 and a relative viability (NCI-H2228; first compound 4 µM) of 0.162. For the same compound, the relative viability (NCI-H522; first compound 0.04 µM) was 0.542, the relative viability (NCI-H522; first compound 0.1265 µM) was 0.56 and the relative viability (NCI-H522; first compound 0.4 µM) was 0.583. For the same compound, the relative viability (NCI-H522; first compound 4 µM) was 0.557, the relative viability (LOU-NH91; first compound 0.04 µM) was 0.605 and the relative viability (LOU-NH91; first compound 0.1265 µM) was 0.649. The relative viability (LOU-NH91; first compound 0.4 µM) was 0.69, the relative viability (LOU-NH91; first compound 4 µM) was 0.62 and the relative viability (RERF-LC-KJ; first compound 0.04 µM) was 0.545. For the same compound, the relative viability (RERF-LC-KJ; first compound 0.1265 µM) was 0.48, the relative viability (RERF-LC-KJ; first compound 0.4 µM) was 0.496 and the relative viability (RERF-LC-KJ; first compound 4 µM) was 0.351. For the same compound, the relative viability (NCI-H460; first compound 0.04 µM) was 0.393, the relative viability (NCI-H460; first compound 0.1265 µM) was 0.397 and the relative viability (NCI-H460; first compound 0.4 µM) was 0.485. For the same compound, the relative viability (NCI-H460; first compound 4 µM) was 0.0949, the relative viability (LC-2-ad; first compound 0.04 µM) was 0.373 and the relative viability (LC-2-ad; first compound 0.1265 µM) was 0.454. The relative viability (LC-2-ad; first compound 0.4 µM) was 0.467, the relative viability (LC-2-ad; first compound 4 µM) was 0.44 and the relative viability (A-427; first compound 0.04 µM) was 0.176. For the same compound, the relative viability (A-427; first compound 0.1265 µM) was 0.214, the relative viability (A-427; first compound 0.4 µM) was 0.214 and the relative viability (A-427; first compound 4 µM) was 0.205. For the same compound, the relative viability (PC-3 [JPC-3]; first compound 0.04 µM) was 0.883, the relative viability (PC-3 [JPC-3]; first compound 0.1265 µM) was 0.862 and the relative viability (PC-3 [JPC-3]; first compound 0.4 µM) was 0.871. The relative viability (PC-3 [JPC-3]; first compound 4 µM) was 0.74, the relative viability (NCI-H2126; first compound 0.04 µM) was 0.898 and the relative viability (NCI-H2126; first compound 0.1265 µM) was 0.83. For the same compound, the relative viability (NCI-H2126; first compound 0.4 µM) was 0.793, the relative viability (NCI-H2126; first compound 4 µM) was 0.699 and the relative viability (LXF-289; first compound 0.04 µM) was 0.193. For the same compound, the relative viability (LXF-289; first compound 0.1265 µM) was 0.212, the relative viability (LXF-289; first compound 0.4 µM) was 0.246 and the relative viability (LXF-289; first compound 4 µM) was 0.191. The relative viability (SW 1573; first compound 0.04 µM) was 0.224, the relative viability (SW 1573; first compound 0.1265 µM) was 0.18 and the relative viability (SW 1573; first compound 0.4 µM) was 0.23. It also gave a relative viability (SW 1573; first compound 4 µM) of 0.231, a relative viability (HCC-15; first compound 0.04 µM) of 0.334 and a relative viability (HCC-15; first compound 0.1265 µM) of 0.372. The relative viability (HCC-15; first compound 0.4 µM) was 0.385, the relative viability (HCC-15; first compound 4 µM) was 0.151 and the relative viability (NCI-H2342; first compound 0.04 µM) was 0.477. It also gave a relative viability (NCI-H2342; first compound 0.1265 µM) of 0.494, a relative viability (NCI-H2342; first compound 0.4 µM) of 0.559 and a relative viability (NCI-H2342; first compound 4 µM) of 0.384. For the same compound, the relative viability (NCI-H1734; first compound 0.04 µM) was 0.286, the relative viability (NCI-H1734; first compound 0.1265 µM) was 0.238 and the relative viability (NCI-H1734; first compound 0.4 µM) was 0.261. It also gave a relative viability (NCI-H1734; first compound 4 µM) of 0.205, a relative viability (SK-LU-1; first compound 0.04 µM) of 0.334 and a relative viability (SK-LU-1; first compound 0.1265 µM) of 0.326. It also gave a relative viability (SK-LU-1; first compound 0.4 µM) of 0.323, a relative viability (SK-LU-1; first compound 4 µM) of 0.217 and a relative viability (NCI-H358; first compound 0.04 µM) of 0.13. It also gave a relative viability (NCI-H358; first compound 0.1265 µM) of 0.0927, a relative viability (NCI-H358; first compound 0.4 µM) of 0.0941 and a relative viability (NCI-H358; first compound 4 µM) of 0.114. It also gave a relative viability (HCC-78; first compound 0.04 µM) of 0.397, a relative viability (HCC-78; first compound 0.1265 µM) of 0.386 and a relative viability (HCC-78; first compound 0.4 µM) of 0.361. It also gave a relative viability (HCC-78; first compound 4 µM) of 0.318, a relative viability (NCI-H647; first compound 0.04 µM) of 0.461 and a relative viability (NCI-H647; first compound 0.1265 µM) of 0.278. For the same compound, the relative viability (NCI-H647; first compound 0.4 µM) was 0.344 and the relative viability (NCI-H647; first compound 4 µM) was 0.192.
